Measured values taken from patent US20180214582A1, “METHOD FOR DIAGNOSING CARCINOMAS USING IRGD AND MAGENTIC RESONANCE TOMOGRAPHY (MRT)” (Albrecht Piiper, priority 2015, published 2018).

What was measured:
HCCs in TGFα/c-myc mice [1] = experiment: Gd-DTPA-enhanced MRI with and without peptide in TGFα/c-myc mice with HCC; format: in vivo; settings: for contrast of HCC tumors in the liver in Gd-DTPA-enhanced MRI: T1-weighted 3T MRI
Excerpt: (§1) Male TGFα/c-myc bitransgenic mice were created by crossing homozygous metallothionein/TGFα and albumin/c-myc single-transgenic mice in a CD13B6CBA background as described (Murakami et al., 1993; Haupenthal et al., 2012). After weaning, the animals were given ZnCl2 by way of the drinking water to induce tumors via the expression of TGFα. Starting at an age of 20 weeks, the TGFα/c-myc animals underwent a Primovist-enhanced MRI scan in a 3T MRI Scanner (Siemens 113 Magnetom Trio, Siemens Medical Solutions) as described (Haupenthal et al., 2012; Watcharin et al., 2015; Korkusuz et al., 2013).
So as to determine the effect of iRGD on the Gd-DTPA-enhanced MRI in the HCC, TGFα/c mice with HCC according to a prior Gd-EOB-DTPA (Primovist)-enhanced MRI one week earlier, or nude mice with HepG2 or Huh7 tumors, were included in the experiments. The mice were anesthetized by way of intraperitoneal injection of ketamine (70 mg/kg body weight) and xylazine (10 mg/kg body weight), followed by a basal T1-weighted MRI. Directly thereafter, a Gd-DTPA-enhanced MRI was conducted (Haupenthal et al., 2012). Twelve to 24 hours later, either iRGD or the RGD control peptide was injected ([…] each via the tail vein), followed by a basal and a Gd-DTPA-enhanced MRI (Watcharin et al., 2015). For the quantitative analysis of the MRI data, the signal intensities in user defined “regions of interest” (ROI) were used (Korkusuz et al., 2013). ROIs were placed in the liver and in the tumor tissue. The changes in the signal intensities were ascertained by subtraction of the pre-contrast value from those after the administration of Gd-DTPA. The changes in the signal intensities of the tumors and the livers due to iRGD or the RGD control peptide were indicated as multiples of the values of the Gd-DTPA MRI with prior injection of PBS.
It was examined whether the tumor-permeabilizing effect of iRGD can already be detected by a Gd-DTPA-enhancing MRI, a widely used clinical procedure, in TGFα/c-myc mice with endogenous HCC. For this purpose, TGFα/c-myc mice with HCCs discovered one week prior according to Gd-EOB-DTPA-enhanced MRI were used. […] 12 to 24 hours later, the mice were administered iRGD or the RGD control peptide, followed by another Gd-DTPA-enhanced MRI.
TGFα/c-myc mice in which HCCs had been detected one week prior by way of Gd-EOB-DTPA-enhanced MRI were anesthetized, followed by a basal T1-weighted MRI, and a Gd-DTPA-enhanced MRI directly thereafter. 12 to 24 hours later, either iRGD or RGD control peptide (con. peptide) was injected (100 μL each via the tail vein, 4 mmol/kg) into the same animals, followed by a basal MRI and a Gd-DTPA-enhanced MRI. A. Gd-DTPA-enhanced MRI of TGFα/c-myc mice with HCC (left), followed by an injection of iRGD and another Gd-DTPA-enhanced MRI 12 hours thereafter. Arrows mark the tumor.
B. quantitative analysis of the MRI data. Values are mean values±SD; n=12.

HepG2 xenotransplants [2] = experiment: Doxorubicin tissue concentration after i.v. peptide in nude mice with HepG2 xenotransplants; format: in vivo; settings: nude mice with subcutaneous HepG2 xenotransplants; peptide 4 mmol/kg i.v., doxorubicin 20 mg/kg iv
Description: HepG2- and Huh7 cells (ATCC and RIKEN BioResource Center) were cultivated in DMEM with 10% FBS and penicillin/streptomycin (Life Technologies). 5 million cells in 100 μL PBS were injected into the sides of NMRI Foxn1 nude mice (Harlan Laboratories B.V.). Four weeks later the mice were assigned to the test groups. Furthermore, the effect of iRGD on the tissue concentrations of intravenously applied doxorubicin, a tumor therapeutic agent that can be detected due to the inherent fluorescence in tissue sections and tissue extracts, in the TGFα/c-myc and in the HepG2 xenotransplant HCC mouse model was analyzed. […] The control peptide had no effects on the doxorubicin level in any of the tissues. TGFα/c-myc mice with radiologically verified HCCs (A) or nude mice with subcutaneous HepG2 xenotransplants (B) were intravenously injected with 4 mmol/kg iRGD or control peptide (each in PBS), or treated with PBS alone, followed by a doxorubicin (20 mg/kg iv) injection 10 minutes later. The tissues were collected another 30 minutes later and stored, and the doxorubicin concentration was determined. The values are mean values±SD; n=5 to 6. Asterisks indicate a significant difference (**P<0.01; ***P<0.001).

Huh7 xenotransplants [3] = experiment: Gd-DTPA-enhanced MRI with and without peptide in nude mice with Huh7 xenotransplants; format: in vivo; settings: p=0.0081
Description: (§2) HepG2- and Huh7 cells (ATCC and RIKEN BioResource Center) were cultivated in DMEM with 10% FBS and penicillin/streptomycin (Life Technologies). 5 million cells in 100 μL PBS were injected into the sides of NMRI Foxn1 nude mice (Harlan Laboratories B.V.). Four weeks later the mice were assigned to the test groups.
(§3) So as to determine the effect of iRGD on the Gd-DTPA-enhanced MRI in the HCC, TGFα/c mice with HCC according to a prior Gd-EOB-DTPA (Primovist)-enhanced MRI one week earlier, or nude mice with HepG2 or Huh7 tumors, were included in the experiments. The mice were anesthetized by way of intraperitoneal injection of ketamine (70 mg/kg body weight) and xylazine (10 mg/kg body weight), followed by a basal T1-weighted MRI. Directly thereafter, a Gd-DTPA-enhanced MRI was conducted (Haupenthal et al., 2012). Twelve to 24 hours later, either iRGD or the RGD control peptide was injected ([…] each via the tail vein), followed by a basal and a Gd-DTPA-enhanced MRI (Watcharin et al., 2015). For the quantitative analysis of the MRI data, the signal intensities in user defined “regions of interest” (ROI) were used (Korkusuz et al., 2013). ROIs were placed in the liver and in the tumor tissue. The changes in the signal intensities were ascertained by subtraction of the pre-contrast value from those after the administration of Gd-DTPA. […]

HCCs in TGFα/c-myc mice [4] = experiment: Doxorubicin tissue concentration after i.v. peptide in TGFα/c-myc mice with HCC; format: in vivo; settings: peptide 4 mmol/kg i.v.; for doxorubicin level in the HCCs: doxorubicin 20 mg/kg iv 10 minutes later, tissues 30 minutes later; for levels of doxorubicin in the organs: doxorubicin 20 mg/kg iv, FIG. 2A
Excerpt: as §1
Furthermore, the effect of iRGD on the tissue concentrations of intravenously applied doxorubicin, a tumor therapeutic agent that can be detected due to the inherent fluorescence in tissue sections and tissue extracts, in the TGFα/c-myc and in the HepG2 xenotransplant HCC mouse model was analyzed. […] The control peptide had no effects on the doxorubicin level in any of the tissues.
TGFα/c-myc mice with radiologically verified HCCs (A) or nude mice with subcutaneous HepG2 xenotransplants (B) were intravenously injected with 4 mmol/kg iRGD or control peptide (each in PBS), or treated with PBS alone, followed by a doxorubicin (20 mg/kg iv) injection 10 minutes later. The tissues were collected another 30 minutes later and stored, and the doxorubicin concentration was determined. The values are mean values±SD; n=5 to 6. Asterisks indicate a significant difference (**P<0.01; ***P<0.001).

HCCs in TGFα/c-myc mice [5] = experiment: Evans blue accumulation after i.v. peptide in TGFα/c-myc mice with endogenous HCC; format: in vivo; settings: peptide 4 mmol/kg i.v., then Evans blue; for concentration of Evans blue in normal tissue (liver, kidney, spleen and lung): photometry; for Evans blue quantity in the tumors compared to HCCs of mice injected with PBS or control peptide: tissues 30 minutes later, photometric quantification
Excerpt: as §1
So as to examine whether intravenously applied iRGD increases the permeability of the HCC, the effect of intravenously applied iRGD on the levels of co-injected Evans blue, an albumin-binding dye, in TGFα/c-myc mice with endogeneous HCCs according to a Gd-EOB-DTPA-enhanced MRI were analyzed. For this purpose, the mice with HCC were intravenously injected with iRGD, an RGD control peptide without a CendR motif, or PBS, followed by the injection of Evans blue […]. Another 30 minutes later, the animals were terminally perfused.
(§4) TGFα/c-myc mice with MRI-verified HCCs (A) or mice with subcutaneous HepG2 (B) or Huh7 xenotransplants (C) were intravenously injected with 4 mmol/kg iRGD or control peptide (each in PBS), or PBS was injected alone, followed by an injection of EB 5 minutes later. The tissues were harvested after another 30 minutes. The EB accumulation in the tissues was determined by way of photometry. The data involves mean values±SD; n=4 to 5. Asterisks indicate a significant difference (* P<0.05; * P<0.01; *** P<0.001). n.s., not significant.

HepG2 tumors = experiment: Gd-DTPA-enhanced MRI with and without peptide in nude mice with HepG2 xenotransplants; format: in vivo
Description: as §2, §3

4T1 tumor = experiment: Gd-DTPA-enhanced MRI with and without peptide in syngeneic 4T1 breast cancer mouse model; format: in vivo; settings: BALB/c mice, 4T1 cells in mammary gland no. 4; peptide 4 mmol/kg; p<0.05
Description: 4T1 cells (ATCC) were cultivated in RPMI 1640 medium with 10% FBS and penicillin/streptomycin (Life Technologies). BALB/c mice were injected with 2.5×10^4 4T1 cells into mammary gland no. 4 of the mouse, and the tumors were allowed to grow for two weeks.
Furthermore, it was examined to what extent iRGD also influences the MRI signal of the tumor in the Gd-DTPA-enhanced MRI in the syngeneic 4T1 breast cancer mouse model.
Effect of iRGD and the RGD control peptide on the increase in the signal intensity in the Gd-DTPA-enhanced MRI in the liver and in the 4T1 tumors in BALB/c mice. BALB/c mice were injected with 2.5×10^4 4T1 cells into mammary gland no. 4 of the mouse. Two weeks later, the mice were anesthetized, followed by a basal T1-weighted MRI, and a Gd-DTPA-enhanced MRI directly thereafter. 12 to 24 hours later, either iRGD or RGD control peptide (con. peptide) was injected (100 μL each via the tail vein, 4 mmol/kg) into the same animals, followed by a basal MRI and a Gd-DTPA-enhanced MRI. The data was quantitatively analyzed. Values are mean values±SD; n=6.

HepG2 xenotransplants [6] = experiment: Evans blue accumulation after i.v. peptide in nude mice with HepG2 xenotransplants; format: in vivo, NMRI Foxn1 nude mice; settings: subcutaneous HepG2 xenotransplants, peptide 4 mmol/kg i.v., p≤0.002
Description: as §2
(§5) So as to examine whether the tumor-permeabilizing effect of iRGD also occurs in HCC nude mice tumor models, the effect of intravenously applied iRGD on the level of co-applied Evans blue in nude mice which had HepG2 or Huh7 xenotransplants was analyzed. iRGD effectuated an increase in the concentrations of co-applied Evans blue in HepG2-xenotransplanted and Huh-7-xenotransplanted tumors by a factor of 3.4 (p≤0.002) (in HepG2 tumors) and 2.6-fold in Huh7 tumors (p<0.001) compared to the corresponding tumors of nude mice injected with PBS and the control peptide (FIGS. 1B and C).
as §4, with “Asterisks indicate a significant difference (* P<0.05; * P<0.01; *** P<0.001). n.s., not significant.” left out

Huh7 xenotransplants [7] = experiment: Evans blue accumulation after i.v. peptide in nude mice with Huh7 xenotransplants; format: in vivo, NMRI Foxn1 nude mice; settings: subcutaneous Huh7 xenotransplants, peptide 4 mmol/kg i.v., p<0.001
Description: as §2, §5
as §4, with “Asterisks indicate a significant difference (* P<0.05; * P<0.01; *** P<0.001). n.s., not significant.” left out

Compound: O=C([O-])CN(CCN(CC(=O)[O-])CC(=O)O)CCN(CC(=O)[O-])CC(=O)O.[Gd+3] [Gd-DTPA, reference compound]
- contrast of HCC tumors in the liver in Gd-DTPA-enhanced MRI (HCCs in TGFα/c-myc mice [1]): highly negative contrasts

Compound: CRGDKGPDC [iRGD]
- doxorubicin level in the HCCs (HepG2 xenotransplants) (HepG2 xenotransplants [2]): increase in the doxorubicin level
- signal intensities in normal organs in Gd-DTPA-enhanced MRI (HCCs in TGFα/c-myc mice [1]): no effects
- contrast of HCC tumors in the liver in Gd-DTPA-enhanced MRI (HCCs in TGFα/c-myc mice [1]): contrasting positively
- increase of signal intensities in the tumors in Gd-DTPA-enhanced MRI vs RGD control peptide or PBS (HCCs in TGFα/c-myc mice [1]; peptide 4 mmol/kg via tail vein, quantitative densitometric analysis, n=12): 2 fold
- rise in signal intensity of the tumors in Gd-DTPA-enhanced MRI (Huh7) (Huh7 xenotransplants [3]): 1.5 fold
- doxorubicin level in the HCCs (HCCs in TGFα/c-myc mice [4]): increase in the doxorubicin level
- levels of doxorubicin in the organs (HCCs in TGFα/c-myc mice [4]): no effects
- concentration of Evans blue in normal tissue (liver, kidney, spleen and lung) (HCCs in TGFα/c-myc mice [5]): had no impact
- Evans blue quantity in the tumors compared to HCCs of mice injected with PBS or control peptide (HCCs in TGFα/c-myc mice [5]): three-fold increase
- signal intensity of the tumors in Gd-DTPA-enhanced MRI (HepG2) (HepG2 tumors; p=0.0311): rise in the signal intensity
- rise in signal intensity of the tumors in Gd-DTPA-enhanced MRI, other HCC mouse models (HepG2) (HepG2 tumors; stated for 'the other HCC mouse models'): ≤ 2 fold
- MRI signal in the Gd-DTPA-enhanced MRI in the 4T1 tumor (4T1 tumor): significant increase in the MRI signal
- increase in concentration of co-applied Evans blue in HepG2 tumors vs PBS and control peptide (HepG2 xenotransplants [6]): 3.4 fold
- increase in concentration of co-applied Evans blue in Huh7 tumors vs PBS and control peptide (Huh7 xenotransplants [7]): 2.6 fold

Compound: CRGDDGPKC [RGD control peptide, RGD control peptide without a CendR motif; acquired from GenScript, reference compound]
- doxorubicin level in the HCCs (HepG2 xenotransplants) (HepG2 xenotransplants [2]): no effects
- signal intensities in normal organs in Gd-DTPA-enhanced MRI (HCCs in TGFα/c-myc mice [1]): no effects
- contrast of HCC tumors in the liver in Gd-DTPA-enhanced MRI (HCCs in TGFα/c-myc mice [1]): negatively contrasted
- doxorubicin level in the HCCs (HCCs in TGFα/c-myc mice [4]): no effects
- levels of doxorubicin in the organs (HCCs in TGFα/c-myc mice [4]): no effects
- concentration of Evans blue in normal tissue (liver, kidney, spleen and lung) (HCCs in TGFα/c-myc mice [5]): had no impact
- Evans blue quantity in the tumors compared to HCCs of mice injected with PBS or control peptide (HCCs in TGFα/c-myc mice [5]): had no effect
